Laboratory results reported in patent US20200079765A1, “SUBSTITUTED HETEROARYL PYRROLONES AND SALTS THEREOF AND USE THEREOF AS HERBICIDAL ACTIVE SUBSTANCES” (Bayer CropScience Aktiengesellschaft, priority 2016, published 2020).

How the values were obtained:
[1] = test system: Matricaria inodora; experiment: Herbicidal pre-emergence action (Experimental Part 2, D); type: in vivo; conditions: pre-emergence (Part 2), scored visually after about 3 weeks
From the text: (§1) Seeds of mono- and dicotyledonous weed plants were placed in plastic pots in sandy loam soil (doubly sown with in each case one species of mono- or dicotyledonous weed plants per pot) and covered with soil. The compounds of the invention, formulated in the form of wettable powders (WP) or as emulsion concentrates (EC), were then applied onto the surface of the covering soil as aqueous suspension or emulsion with addition of 0.5% additive at a water application rate of 600 liters per hectare (converted). After the treatment, the pots are placed in a greenhouse and kept under good growth conditions for the trial plants. After about 3 weeks, the effect of the preparations was scored visually in comparison with untreated controls as percentages. For example, 100% activity=the plants have died, 0% activity=like control plants. Tables D1 to D8 below show the effects of selected compounds of the general formula (I) according to Tables I.1 to I.116 on various harmful plants and an application rate corresponding to 1280 g/ha or 320 g/ha, which were obtained by the experimental procedure mentioned above.

[2] = test system: Poa annua; experiment: as above; type: in vivo; conditions: pre-emergence (Part 2), scored visually after about 3 weeks
From the text: as §1

[3] = test system: Amaranthus retroflexus; experiment: as above; type: in vivo; conditions: pre-emergence (Part 2), application rate 1280 g/ha, scored visually after about 3 weeks
From the text: as §1

[4] = test system: Echinochloa crus-galli; experiment: as above; type: in vivo; conditions: pre-emergence (Part 2), scored visually after about 3 weeks
From the text: as §1

[5] = test system: Setaria viridis; experiment: as above; type: in vivo; conditions: pre-emergence (Part 2), scored visually after about 3 weeks
From the text: as §1

[6] = test system: Stellaria media; experiment: as above; type: in vivo; conditions: pre-emergence (Part 2), scored visually after about 3 weeks
From the text: as §1

[7] = test system: Lolium rigidum; experiment: as above; type: in vivo; conditions: pre-emergence (Part 2), scored visually after about 3 weeks
From the text: as §1

[8] = test system: Abutilon theophrasti; experiment: as above; type: in vivo; conditions: pre-emergence (Part 2), application rate 320 g/ha, scored visually after about 3 weeks
From the text: as §1

[9] = biological target: T1, photosystem II (PS II) (Spinacia oleracea, UniProt P69560); experiment: Measurement of the PS II activity in thylakoid membranes (DCPIP reduction, Experimental Part 3, Table E1); type: biochemical; conditions: spinach thylakoid membranes
T1 construct: the chloroplasts were osmotically ruptured and the thylakoid membranes were then obtained by centrifugation; from tissue; host or cells: thylakoid membranes from fresh spinach leaves
Protocol: Cooled fresh spinach leaves were comminuted and homogenized in 50 mM phosphate buffer, pH 6.8. 10 mM KCl, 0.34 M sucrose (sucrose buffer) (blender, 1 g of plant material/ml). The homogenate was subsequently filtered through 4 layers of Miracloth and the chloroplasts were isolated by centrifugation, i.e. 10 min of centrifugation at 4400×g (4° C.). The sediment was suspended in 25 ml of sucrose buffer and re-centrifuged for 10 min at 4400×g (4° C.). The sediment was then suspended in 40 ml of 50 mM phosphate buffer, pH 6.8, 10 mM KCl, without sucrose. In this step, the chloroplasts were osmotically ruptured and the thylakoid membranes were then obtained by centrifugation (10 min, 4400×g, 4° C.). The membrane sediment was finally suspended in about 20 ml of 50 mM phosphate buffer, pH 6.8, 10 mM KCl. Following protein determination and activity determination, the membrane suspension was divided into aliquots and frozen in liquid nitrogen. The aliquots were stored at −80° C. Under these conditions, the photosystem II preparation was storage stable for at least three months. The activity determination of photosystem II (PS II) was then carried out using the following test principle: The electron transfer from PS II to an artificial electron acceptor, 2,6-dichlorophenolindophenol (DCPIP), was measured with exposure to light. The concentration of the blue oxidized form of DCPIP was determined spectrophotometrically at wavelength λ=595 nm. […] The activity determination was carried out in microtiter plates (96 cavities) in a reaction volume of 200 μl. Here, 155 μl of dilute membrane suspension were initially charged in 50 mM of phosphate buffer, pH 6.8, 10 mM KCl. Depending on the activity of the PS II preparation, the dilution was adjusted such that the measurement of the decrease in absorption (λ=595 nm) was linear for at least 10 min. In each case 5 μl solution of the test compounds of a concentration of 100 μM in DMSO were added to the enzyme suspension; controls contained 5 μl DMSO; the final concentration of DMSO in the reaction batch was thus 2.5% (v/v); this concentration had no adverse effect on the enzymatic activity. On each microtiter plate, a known PS II inhibitor, for example metribuzin, was used as standard, which allowed the quality of the PS II test to be assessed. The reaction was started by addition of 40 μl DCPIP solution (600 μM in distilled water); the final concentration of DCPIP was 120 μM. Measurement of absorption was carried out over a period of 10 min at 22° C. and with exposure to light. Using metribuzin as comparative substance, the results for the efficacy of the compounds of the general formula (I) at 100 μM are stated in the table below using the following classification: ++++ (inhibition≥90%), +++ (90%>inhibition≥70%), ++ (70%>inhibition≥50%), + (50%>inhibition≥30%).
Effects of selected compounds of the general formula (I) according to the following table E1: […]

[10] = test system: Matricaria inodora; experiment: Herbicidal post-emergence action (Experimental Part 2, C); type: in vivo; conditions: post-emergence (Part 2), rated visually after about 3 weeks
Protocol: (§2) Seeds of mono- and dicotyledonous weed plants were placed in plastic pots in sandy loam soil (doubly sown with in each case one species of mono- or dicotyledonous weed plants per pot), covered with soil and cultivated in a greenhouse under controlled growth conditions. 2 to 3 weeks after sowing, the test plants were treated at the one-leaf stage. The compounds of the invention, formulated in the form of wettable powders (WP) or as emulsion concentrates (EC), were applied onto the green parts of the plants as aqueous suspension or emulsion with addition of 0.5% additive at a water application rate of 600 liters per hectare (converted). After the test plants had been kept in the greenhouse under optimum growth conditions for about 3 weeks, the activity of the preparations was rated visually in comparison to untreated controls. For example, 100% activity=the plants have died, 0% activity=like control plants. Tables C1 to C8 below show the effects of selected compounds of the general formula (I) according to Tables I.1 to I.116 on various harmful plants and an application rate corresponding to 1280 g/ha or 320 g/ha, which were obtained by the experimental procedure mentioned above.

[11] = test system: Poa annua; experiment: as above; type: in vivo; conditions: post-emergence (Part 2), rated visually after about 3 weeks
Protocol: as §2

[12] = test system: Amaranthus retroflexus; experiment: as above; type: in vivo; conditions: post-emergence (Part 2), rated visually after about 3 weeks
Protocol: as §2

[13] = test system: Echinochloa crus-galli; experiment: as above; type: in vivo; conditions: post-emergence (Part 2), application rate 1280 g/ha, rated visually after about 3 weeks
Protocol: as §2

[14] = test system: Setaria viridis; experiment: as above; type: in vivo; conditions: post-emergence (Part 2), rated visually after about 3 weeks
Protocol: as §2

[15] = test system: Stellaria media; experiment: as above; type: in vivo; conditions: post-emergence (Part 2), rated visually after about 3 weeks
Protocol: as §2

[16] = test system: Abutilon theophrasti; experiment: as above; type: in vivo; conditions: post-emergence (Part 2), rated visually after about 3 weeks
Protocol: as §2

CC1=CC(=O)N(c2noc(C(C)(C)C)c2C)C1O (stereo not drawn) [I.1-177]
Matricaria inodora, herbicidal activity ([1]; application rate 1280 g/ha): 100% | Poa Annua, herbicidal activity ([2]; application rate 1280 g/ha): 100% | Amaranthus retroflexus, herbicidal activity [3]: 90% | Echinochloa crus-galli, herbicidal activity ([4]; application rate 1280 g/ha): 100% | Setaria viridis, herbicidal activity ([5]; application rate 320 g/ha): 100% | Stellaria media, herbicidal activity ([6]; application rate 1280 g/ha): 100% | Lolium rigidum, herbicidal activity ([7]; application rate 320 g/ha): 90% | Abutilon theophrasti, herbicidal activity [8]: 100% | Effect (inhibition of PS II activity) [9]: ++++ (inhibition≥90%) | Matricaria inodora, herbicidal activity ([10]; application rate 320 g/ha): 100% | Poa Annua, herbicidal activity ([11]; application rate 1280 g/ha): 100% | Amaranthus retroflexus, herbicidal activity ([12]; application rate 1280 g/ha): 100% | Echinochloa crus-galli, herbicidal activity [13]: 100% | Setaria viridis, herbicidal activity ([14]; application rate 1280 g/ha): 100% | Stellaria media, herbicidal activity ([15]; application rate 320 g/ha): 100% | Abutilon theophrasti, herbicidal activity ([16]; application rate 1280 g/ha): 100%

CC1=CC(=O)N(c2onc(C(C)(C)C)c2C)C1O (stereo not drawn) [I.1-300]
Matricaria inodora, herbicidal activity ([1]; application rate 320 g/ha): 100% | Poa Annua, herbicidal activity ([2]; application rate 320 g/ha): 90% | Amaranthus retroflexus, herbicidal activity [3]: 90% | Echinochloa crus-galli, herbicidal activity ([4]; application rate 320 g/ha): 100% | Setaria viridis, herbicidal activity ([5]; application rate 1280 g/ha): 100% | Stellaria media, herbicidal activity ([6]; application rate 320 g/ha): 100% | Lolium rigidum, herbicidal activity ([7]; application rate 1280 g/ha): 90% | Abutilon theophrasti, herbicidal activity [8]: 100% | Effect (inhibition of PS II activity) [9]: +++ (90%>inhibition≥70%) | Matricaria inodora, herbicidal activity ([10]; application rate 320 g/ha): 100% | Poa Annua, herbicidal activity ([11]; application rate 320 g/ha): 100% | Amaranthus retroflexus, herbicidal activity ([12]; application rate 320 g/ha): 100% | Echinochloa crus-galli, herbicidal activity [13]: 100% | Setaria viridis, herbicidal activity ([14]; application rate 320 g/ha): 100% | Stellaria media, herbicidal activity ([15]; application rate 320 g/ha): 100% | Abutilon theophrasti, herbicidal activity ([16]; application rate 320 g/ha): 100%

CC1=CC(=O)N(c2cc(C(F)(F)F)c(Cl)cn2)C1O (stereo not drawn) [I.1-451, 5-Hydroxy-4-methyl-1-(5-chloro-4-trifluoromethylpyridin-2-yl)-1,5-dihydro-2H-pyrrol-2-one]
Matricaria inodora, herbicidal activity ([1]; application rate 1280 g/ha): 100% | Poa Annua, herbicidal activity ([2]; application rate 1280 g/ha): 90% | Amaranthus retroflexus, herbicidal activity [3]: 90% | Setaria viridis, herbicidal activity ([5]; application rate 1280 g/ha): 100% | Stellaria media, herbicidal activity ([6]; application rate 320 g/ha): 100% | Effect (inhibition of PS II activity) [9]: ++++ (inhibition≥90%) | Matricaria inodora, herbicidal activity ([10]; application rate 320 g/ha): 90% | Poa Annua, herbicidal activity ([11]; application rate 320 g/ha): 100% | Amaranthus retroflexus, herbicidal activity ([12]; application rate 1280 g/ha): 100% | Echinochloa crus-galli, herbicidal activity [13]: 100% | Stellaria media, herbicidal activity ([15]; application rate 320 g/ha): 100% | Abutilon theophrasti, herbicidal activity ([16]; application rate 320 g/ha): 100%

CCC(=O)OC1C(C)=CC(=O)N1c1cc(C(F)(F)F)c(Cl)cn1 (stereo not drawn) [I.5-451, 5-Ethylcarbonyloxy-4-methyl-1-(5-chloro-4-trifluoromethylpyridin-2-yl)-1,5-dihydro-2H-pyrrol-2-one]
Matricaria inodora, herbicidal activity ([1]; application rate 1280 g/ha): 90% | Poa Annua, herbicidal activity ([2]; application rate 320 g/ha): 100% | Setaria viridis, herbicidal activity ([5]; application rate 320 g/ha): 100% | Stellaria media, herbicidal activity ([6]; application rate 1280 g/ha): 100% | Lolium rigidum, herbicidal activity ([7]; application rate 1280 g/ha): 90% | Matricaria inodora, herbicidal activity ([10]; application rate 1280 g/ha): 90% | Poa Annua, herbicidal activity ([11]; application rate 1280 g/ha): 100% | Setaria viridis, herbicidal activity ([14]; application rate 1280 g/ha): 90% | Stellaria media, herbicidal activity ([15]; application rate 1280 g/ha): 100% | Abutilon theophrasti, herbicidal activity ([16]; application rate 320 g/ha): 100%
